Columns and labels:
ATG7 = ATG7 gene expression (qPCR) in primary human skeletal muscle myotubes; type: cell-based; details: HMB 1 mM, 4 days, HSMM myotubes, qPCR normalized to 36B4, n=6
Experimental: Cultured primary human skeletal muscle cells (HSMM, Lonza) were grown to confluence and differentiated into myotubes. The cells were then supplemented with HMB (1 mM) for 4 days (n=6 for treatment or control groups) with a medium change every other day. Gene expression (mRNA) was determined at the end of the treatment by quantitative polymerase chain reaction (qPCR). For normalization, the mRNA signal was adjusted to the co-amplified signal of the ribosomal protein 36B4.

[1] = test system: differentiated adipocytes; assay: Lipolysis in differentiated adipocytes; type: cell-based; details: pretreated 48 hours with 1 mM HMB; basal and 1 uM isoproterenol; n=4
Experimental: (§1) Differentiated adipocytes were treated with HMB in regular growth medium for determination of lipolysis and gene expression. The adipocytes were pretreated for 48 hours with 1 mM HMB (n=4), resulting in basal and 1 uM isoproterenol stimulated lipolysis (FIG. 3A).

[2] = test system: adipose triglyceride lipase (ATGL); assay: ATGL gene expression in differentiated adipocytes; type: cell-based; details: HMB, 96 hours, n=6, p<0.05
Experimental: as §1

[3] = test system: autophagy related protein (ATG7); assay: ATG7 gene expression in differentiated adipocytes; type: cell-based; details: HMB, 96 hours, n=6, p<0.05
Experimental: as §1

AMPK [4] = assay: AMPK activation (phosphorylated AMPK substrates, total AMPK) in primary human adipocytes; type: cell-based; details: 1 mM HMB, 96 hours
Experimental: A line of subcutaneous preadipocytes isolated from normal humans (non-diabetic controls) was used. These cells differentiate well (see FIG. 4) and provide a good in vitro model for studying effects of HMB on lipophagy. […] Differentiated adipocytes (14 days post confluence) were treated for 4 days with 1 mM HMB supplemented in normal growth medium. Lysates were probed with an antibody (Cell Signal Technologies) directed against AMPK phosphorylated substrates (consensus motif LCRXXpS/pT) to obtain a broad evaluation of AMPK activation and total AMPK levels were also measured. […] The cells were lysed and probed for phosphorylated targets of AMPK and for total AMPK levels (FIG. 5B).

AMPK [5] = assay: AMPK activation in HEK293 cells; type: cell-based; details: similarly treated HEK293 cells (data not shown)
BNIP3 = BNIP3 gene expression in human primary adipocytes; type: cell-based; details: 1 mM HMB, 96 hours, n=3, p<0.05
From the text: (§2) These transcription factors represent two different autophagy pathways.

TFEB = TFEB gene expression in human primary adipocytes; type: cell-based; details: 1 mM HMB, 96 hours, n=3, p<0.05
From the text: as §2

Primary preadipocytes = assay: Dual-labeled LC3 (DsRed/GFP) imaging of autophagy in primary preadipocytes; type: cell-based; details: 1 mM HMB, 4 days
Experimental: A primary adipocyte cell based assay for visualizing HMB activated lipophagy was developed. Primary preadipocytes were cultured on glass coverslips and treated with HMB for four days in regular growth medium. Cells were fixed and mounted with DAPI-containing medium and imaged with 60× objective. Autophagy vesicles are in red with degradation of green signal indicative of autophagy activation (FIG. 7). Nuclei are stained in blue (FIG. 7). A dual-labeled LC3 retroviral expression contrast was used to generate recombinant retrovirus using 293GPG cells. Primary preadipocytes were infected with the viral particles and, starting with four days after infection, selected with geneticin for two weeks prior to the imaging experiments. The LC3 fusion construct labels the autophagosomes and harbors dual signals; DsRed and GFP green probes. In the basal state there is co-localization of the green and red signals resulting in a yellow signal in the merged panel (FIG. 7 top panel with no HMB). When autophagy is activated, the GFP probe is cleaved from LC3 by ATG4 and degraded resulting in loss of the green signal and in absence of the co-localization in the merged panel. The initial studies used preadipocytes infected with the LC3 containing retrovirus and treated or not treated for 4 days with 1 mM HMB (FIG. 7, top: no HMB, bottom +HMB).

adipocytes (SGBS) = assay: Phosphor protein array, SGBS adipocytes; type: cell-based; details: HMB-treated SGBS adipocytes
Experimental: (§3) Lysates from HMB-treated muscle (HSMM) and adipocytes (SGBS) were analyzed using a phosphor protein array. Many mTOR targets were regulated in both cell system (FIG. 8). Increases in CREB phosphorylation on serine 133 on a signaling protein array using SGBS adipocytes treated HMB was seen (FIG. 8). Thus, the activating phosphorylation of CREB at S133 mediates induction of TFEB in these adipocytes and this pathway results in the upregulation of autophagy.

muscle cells (HSMM) = assay: Phosphor protein array, HSMM muscle cells; type: cell-based, human; details: HMB-treated HSMM muscle cells
Experimental: as §3

[6] = after HMB is fed; cited from earlier work
[7] = test system: plasma CPK (creatine phosphokinase); details: following intense exercise, within the first 48 hrs of supplementation; cited from earlier work
[8] = healthy young or old adults; cited from earlier work
mTOR = details: in vitro, through mTOR phosphorylation; cited from earlier work
[9] = test system: ubiquitin-proteosome proteolytic pathway; details: muscle protein catabolism stimulated by PIF, LPS and angiotensin II; cited from earlier work
[10] = test system: caspases-3 and -8 proteases; details: cited from earlier work
[11] = compared with CaHMB; cited from earlier work

CC(C)(O)CC(=O)O [HMB, β-hydroxy-β-methylbutyric acid]
ATG7 gene expression (mRNA) (ATG7): Significant (p<0.01) upregulation
lipolysis (basal and isoproterenol stimulated) [1]: activates
ATGL gene expression [2]: significantly increased
ATG7 gene expression [3]: significantly increased
total AMPK levels (AMPK [4]): not significantly changed
AMPK substrate phosphorylation intensity (AMPK [4]; densitometry, n=3, p<0.01): significant increase
AMPK substrate phosphorylation increase (AMPK [5]): not observed
BNIP3 mRNA levels (BNIP3): increased
TFEB mRNA levels (TFEB): increased
size of autophagic puncta (Primary preadipocytes): significant increases
LC3 GFP green signal and green/red co-localization (Primary preadipocytes; preadipocytes infected with LC3 retrovirus): Loss of green signals and absence of green/red co-localization
CREB phosphorylation (serine 133) (adipocytes (SGBS)): enhanced
HSP27 phosphorylation (adipocytes (SGBS)): enhanced
Yes kinase phosphorylation (adipocytes (SGBS)): Enhanced
activation of p53 (adipocytes (SGBS)): Reduced activation
activation of pSTAT3 (adipocytes (SGBS)): Reduced activation
activity of the mTOR pathway (adipocytes (SGBS)): Reduced activity
RSK 1/2/3 phosphorylation at the mTOR site (S473) (muscle cells (HSMM)): significant reduction
activation of STAT3 (muscle cells (HSMM)): reduced activation
activation of p53 (muscle cells (HSMM)): reduced activation
mTOR activity (muscle cells (HSMM)): inhibition
p70 S6 kinase phosphorylation at several threonine p-sites (muscle cells (HSMM)): significant reduction
loss of HMB to urine [6]: 20-50%
muscle damage measured by elevated plasma CPK [7]: reduced
side effects [8]: no side effects
protein synthesis (mTOR): stimulates
proteolysis [9]: decreases
activation of caspases-3 and -8 proteases [10]: attenuates

CC(C)(O)CC(=O)O [HMB free acid, β-hydroxy-β-methylbutyric acid]
absorption [11]: absorbed quicker
tissue clearance [11]: greater tissue clearance
